# Laboratory results: patent publication US20070203225A1, “METHOD OF INCREASING ENDOGENOUS ADIPONECTIN PRODUCTION AND LEPTIN PRODUCTION” (priority 2001, published 2007)
# Entries after “also recorded” stand apart in the source; their conditions may differ. Read-outs that look alike come from different tables or passages of the source.
# Experiments:
# leptin promoter = assay: Leptin promoter luciferase construct transfected into 3T3-L1 cells; format: cell-based
# isolated rat adipocytes [1] = assay: Leptin secretion/production by isolated cultured rat adipocytes (RIA); format: cell-based; details: for Leptin (ng) Produced over 96 h / [Leptin] (ng/ml) at 96 h: isolated rat adipocytes, 96 h culture; for increase of leptin production/secretion: PDH kinase inhibitors vs control: DTNB 100 μM, NEM 0.1 μM, DCA 2 mM; for increase of leptin secretion/production: Malate 2-5 mM, fumarate 5 mM, alone or in combination, low insulin and glucose, over control; for effect on leptin secretion (in words): oleate/oleic acid 2 mM, low glucose
# Protocol: (§1) Cell isolation/preparation: Adipocytes are prepared from epididymal fat pads from male Sprague-Dawley rats weighing 300-600 g. Epididymal fat depots are resected from halothane anesthetized rats under aseptic conditions and adipocytes are isolated by collagenase digestion by the Rodbell method (Rodbell M. Metabolism of isolated fat cells. I. Effects of hormones on glucose metabolism and lipolysis. J Biol Chem. 1964; 239: 375-380), with minor modifications as previously described (Mueller W M, Gregoire F M, Stanhope K L, Mobbs C V, Mizuno T M, Warden C H, Stem J S, Havel P J. Evidence that glucose metabolism regulates leptin secretion from isolated adipocytes. Endocrinology 139: 551-558, 1998; Mueller W M, Stanhope K L, Gregoire F, Evans J L, Havel P J. Effects of metformin and vanadium on leptin secretion from cultured rat adipocytes. Obesity Res. 8: 530-539, 2000; Medina E A, Stanhope K L, Mizuno T M, Mobbs C V, Gregoire F, Hubbard N E, Erickson K L, Havel P J. Effects of tumor necrosis factor alpha on leptin secretion and gene expression: relationship to changes of glucose metabolism in isolated rat adipocytes. Int J Obes Relat Metab Disord. 23: 896-903, 1999.). The isolated adipocytes are then incubated for 30 minutes at 37 C before being plated and cultured on Matrigel-coated plates.
# (§2) Adipocyte Culture: Adipocytes are maintained in culture anchored to a basement membrane matrix (Matrigel, Becton Dickinson, Franklin Lakes, N.J.) or collagen from Cohesion Technologies, (Palo Alto, Calif.). Although all in vitro systems have inherent advantages and disadvantages, advantages of this system compared with cultures containing free-floating adipocytes are that the matrix simulates their normal basement membrane attachment and that the cells are maintained in close proximity to each other, allowing direct cell to cell contact. Together the cell contact and basement membrane attachment help to maintain differentiation, since adipocytes have a strong tendency to dedifferentiate in long-term (>24 h) culture. In addition, the matrix and the small amount of serum in the media both contain growth factors, which are also likely to help in maintaining cell differentiation. Furthermore, the adipocytes in this system are not exposed to toxic levels of oxygen at the interface of the media and the incubator atmosphere, as opposed to free-floating adipocytes which aggregate at the surface of the media. An advantage of the system over those containing minced adipose tissue is that all of the cells in the culture are equally exposed to the nutrients and the oxygen dissolved in the media. Thus, although clearly different from the in vivo situation, this system provides a more physiological environment than most systems for maintaining adipocytes in long-term culture.
# (§3) In culturing each suspension, Matrigel is first thawed on ice to a liquid and uniformly applied to the surface of culture dishes (300 μl Matrigel/35 mm well). After the incubation period, 150 μl of the adipocyte suspension (2:1 ratio of packed cells to media) are plated on the Matrigel or collagen matrix. Adipocytes from each suspension are thoroughly mixed with a transfer pipette before plating to insure that a similar number adipocytes with a similar size distribution are added to the control and experimental wells for each suspension. The warmth of the added cells and buffer causes the Matrigel to gel around the adipocytes, or the neutralization of the acidic pH of the collagen solution to 7.0 solidifies the collagen, and both of these techniques effectively anchor the adipocytes to the culture dish. After a 30 minute incubation at 37° C., 2 ml of warm culture medium is added. The cells are maintained in an incubator at 37° C. for 96 hours with 6% CO2. Aliquots of adipocytes from each animal are divided into wells, with the different concentrations of insulin or other agents to be tested. In each plate an appropriate control well contains adipocytes from the same animal. […]
# isolated rat adipocytes [2] = details: cited from earlier work; for effect on leptin secretion (in words): citrate
# isolated rat adipocytes [3] = assay: Lactate production and proportion of glucose anaerobically metabolized to lactate in isolated cultured rat adipocytes; format: cell-based; details: for Glucose to Lactate (%) / Lactate Produced (μg) over 96 h: isolated rat adipocytes, 96 h culture
# Protocol: as §1, §2, §3
# cultured rat adipocytes = assay: Adiponectin secretion by isolated cultured rat adipocytes over 96 h; format: cell-based; details: DTNB 100 μM, DCA 2 mM; 96 h culture, n=6
# Protocol: Several studies have reported that thiazolidenediones (TZDs), agonists of PPARγ, increase adiponectin expression and circulating levels in animals (Maeda, 2001; Yamauchi, 2001a; Ye, 2003). TZD (10 μM Troglitazone) stimulated of adiponectin secretion from cultured rat adipocytes from 3 different depots (n=6). Mesenteric fat produced the largest amount of adiponectin over 96 hours in culture. (FIG. 5A). Adiponectin secretion from both the control- and TZD-treated adipocytes was well correlated with the glucose utilization (control, r=0.79; p<0.001); (TZD-treated, r=0.84, p=<0.0001, FIG. 5B) showing that, similar to leptin production, glucose metabolism also is involved in the regulation of adiponectin production by adipocytes.
# Insulin increased adiponectin production from 3 different fat depots, however as in the experiments with troglitazone, the mesenteric depot produced the most adiponectin (FIG. 6B). Like leptin, both basal and insulin-stimulated adiponectin secretion was highly correlated to glucose utilization (r=0.91, p<0.0001) (FIG. 6C), and inversely related to the proportion of glucose metabolized to lactate (r=−0.81, p<0.0001) (FIG. 6D).
# Also paralleling the regulation of leptin, adiponectin secretion by isolated cultured adipocytes was increased during 96 h culture by inhibitors of PDH-K. DTNB (100 μM) increased adiponectin secretion by 40% (p<0.03, n=6, FIG. 7A). DCA (2 mM) increased adiponectin secretion by 23% (p<0.025, n=6, FIG. 7B). The increase in adiponectin induced by DTNB was highly correlated with glucose utilization (r=0.95, p<0.004). Furthermore in adipocytes transfected with antisense directed at PDH-K, adiponectin secretion was stimulated by 24.3±8.4%, p<0.05, n=7, FIG. 7C).
# as §1
# Adipocyte Culture: Adipocytes are maintained in culture anchored to a basement membrane matrix (Matrigel, Becton Dickinson, Franklin Lakes, N.J.) or collagen from Cohesion Technologies, (Palo Alto, Calif.). […]
# isolated rat adipocytes [4] = assay: Glucose utilization (uptake) by isolated cultured rat adipocytes; format: cell-based; details: for Glucose Uptake (μg) over 96 h: isolated rat adipocytes, 96 h culture
# Protocol: as §1, §2, §3
# isolated rat adipocytes [5] = assay: Incorporation of glucose carbon into triglyceride in cultured adipocytes; format: cell-based; details: DTNB 100 μM, NEM 0.1 μM, DCA 2 mM
# Protocol: Incorporation of Glucose Carbon into Triglyceride: To measure glucose incorporation into triglyceride, cultures are exposed to media containing 0.01 uCi/ml of ^14C-glucose. After 96 hr, media and extracellular lipid is removed from the well and methanol added. Then scrape the collagen-cell matrix from the well and transfer into a 50 ml glass tube. Rinse the well and scrape again in methanol to assure complete transfer of cells. Total triglycerides will be extracted using the Folch method (Folch, 1957). An aliquot of the lipid extract will be placed into vials containing scintillation fluid then radioactivity will be measured.
# The first measurement is used to calculate the amount of glucose incorporated into triglycerides. Another aliquot of the lipid extract is placed into pre-weighed aluminum pans to determine the total amount of triglyceride per well. The remaining lipid is saponified and acidified to separate the glycerol and fatty acids. An aliquot of the lipid extract is placed into vials containing scintillation fluid and counted. This second count represents the ^14C-glucose incorporation into fatty acids. By subtraction, the amount that was incorporated into triglyceride though glycerol is also determined. Glucose incorporation into triglyceride and into the fatty acid portion of the triglyceride are calculated by multiplying disintegration per min by total ug of glucose/well over the total DPM/well.
# isolated rat adipocytes [6] = assay: Glucose oxidation: incorporation of 14C-glucose into CO2 by isolated rat adipocytes; format: cell-based
# Protocol: Substrate Oxidation: Oxidation is measured using a modification of the method of Rodbell (Rodbell, 1964) and a modification of the cell culture system described by Bottcher and Furst (Bottcher, 1996). Briefly, adipocytes are isolated, counted and sized as previously described. Adipocytes are plated as described except they are placed in a sterile 20 ml scintillation vial instead of a well. Two ml of treatment media containing [U-^14C]-substrate (0.3 uCi/ml; glucose, fatty acids, malate, fumarate, pyruvate) is added to the vials. The vials are filled with 95% O2-5% CO2 gas and capped with rubber stoppers fitted with a hanging center well. Each well contains a 2×8 cm strip of Whatman No. 1 paper. Vials are maintained at 37° C. for 48 hr. After 48 hr, a sample of media is removed from each vial using a 4 inch, 23 gauge needle. Using another syringe and 23 gauge needle, 200 ul of sodium benzethonium is placed onto the paper strip and hanging well to capture CO2. Concentrated sulfuric acid is added to the vial in order to lyse cells and liberate all CO2 from the collagen matrix. After 24 hours, the hanging well and paper are transferred to another vial containing scintillation fluid and counted. The data are expressed as % DPM recovered as CO2 of the total DPM remaining in the media at 48 hours and as micromoles of substrate oxidized over time.
# [7] = DCA 2.0 mM + insulin 0.48 nM vs control (insulin only)
# [8] = DTNB 100 μM, NEM 0.1 μM, DCA 2 mM
# [9] = NEM 0.1 μM + insulin 0.48 nM vs control (insulin only)
smiles,measurement,setting,value
"O=CC[C@@H](O)[C@H](O)[C@H](O)CO [2-DG, 2-deoxy-D-glucose]",effect on activity of control plasmid (in words),"leptin promoter; insulin 10 nM, 2-DG 10 mg/dl",unaffected
same,effect on leptin promoter activity (in words),"leptin promoter; insulin 0.1 to 10 nM, 2-DG 10 mg/dl on basal and insulin-stimulated (10 nM) activity",markedly inhibited; also recorded: completely blocked
same,effect on leptin secretion and ob gene expression (in words),isolated rat adipocytes [1]; 2-DG treatment,suppressed
O=C(O)CC(O)(CC(=O)O)C(=O)O [Citrate],effect on leptin secretion (in words),isolated rat adipocytes [2]; low glucose and insulin concentration,stimulates
same,effect on leptin secretion (in words),isolated rat adipocytes [2]; presence of high insulin and glucose,does not affect
"O=C(O)C(Cl)Cl [DCA, Dichloroacetate]",Change in Parameter: Glucose to Lactate (%),isolated rat adipocytes [3]; [7],−16.1 ± 1.3%
same,Change in Parameter: Lactate Produced (μg) over 96 h,isolated rat adipocytes [3]; [7],-181 ± 10 µg
same,Glucose to Lactate (%),isolated rat adipocytes [3]; DCA 2.0 mM + insulin 0.48 nM,7.9 ± 0.9%
same,Lactate Produced (μg) over 96 h,isolated rat adipocytes [3]; DCA 2.0 mM + insulin 0.48 nM,81 ± 4 µg
same,increase of adiponectin secretion,cultured rat adipocytes,23%
same,Change in Parameter: Glucose Uptake (μg) over 96 h,isolated rat adipocytes [4]; [7],-46 ± 57 µg
same,Glucose Uptake (μg) over 96 h,isolated rat adipocytes [4]; DCA 2.0 mM + insulin 0.48 nM,1082 ± 117 µg
same,% ΔLeptin Produced over 96 h,isolated rat adipocytes [1]; [7],+17.6 ± 4.7%
same,% Δ[Leptin] (ng/ml) at 96 h,isolated rat adipocytes [1]; [7],+17.9 ± 7.9%
same,Change in Parameter: Leptin (ng) Produced over 96 h,isolated rat adipocytes [1]; [7],+12.9 ± 3.6 ng
same,Change in Parameter: [Leptin] (ng/ml) at 96 h,isolated rat adipocytes [1]; [7],+3.6 ± 1.0 ng/ml
same,Leptin (ng) Produced over 96 h,isolated rat adipocytes [1]; DCA 2.0 mM + insulin 0.48 nM,88.3 ± 7.5 ng
same,[Leptin] (ng/ml) at 96 h,isolated rat adipocytes [1]; DCA 2.0 mM + insulin 0.48 nM,27.0 ± 2.6 ng/mL
same,increase of leptin production/secretion,isolated rat adipocytes [1]; cultured adipocytes,20-25%
O=C(O)CC(O)C(=O)O (stereo not drawn) [Malate],increase of leptin secretion/production,isolated rat adipocytes [1],20%
same,increase of leptin secretion/production,isolated rat adipocytes [1]; listed as malate,+20%
"CCN1C(=O)C=CC1=O [NEM, N-ethylmaleimide]",effect on proportion of glucose incorporated into TG (in words),isolated rat adipocytes [5],without affecting
same,"effect on glucose not converted to lactate or incorporated into TG (OTHER; glucose flux into oxidation), by subtraction (in words)",isolated rat adipocytes [3]; [8],increased
same,effect on proportion of glucose anaerobically metabolized to lactate (in words),isolated rat adipocytes [3]; [8],decreased
same,effect on lactate production (in words),"isolated rat adipocytes [3]; DTNB 100 μM, NEM 0.1 μM, DCA 0.1 to 5.0 mM",without any increase
same,Change in Parameter: Glucose to Lactate (%),isolated rat adipocytes [3]; [9],−6.9 ± 2.3%
same,Change in Parameter: Lactate Produced (μg) over 96 h,isolated rat adipocytes [3]; [9],-10 ± 13 µg
same,Glucose to Lactate (%),isolated rat adipocytes [3]; NEM 0.1 μM + insulin 0.48 nM,13.6 ± 1.5%
same,Lactate Produced (μg) over 96 h,isolated rat adipocytes [3]; NEM 0.1 μM + insulin 0.48 nM,178 ± 11 µg
same,effect on total / insulin-mediated glucose utilization (in words),isolated rat adipocytes [4]; [8],increased
same,Change in Parameter: Glucose Uptake (μg) over 96 h,isolated rat adipocytes [4]; [9],+348 ± 114 μg
same,Glucose Uptake (μg) over 96 h,isolated rat adipocytes [4]; NEM 0.1 μM + insulin 0.48 nM,1399 ± 132 µg
same,% ΔLeptin Produced over 96 h,isolated rat adipocytes [1]; [9],+26.6 ± 6.2%
same,% Δ[Leptin] (ng/ml) at 96 h,isolated rat adipocytes [1]; [9],+25.3 ± 6.3%
same,Change in Parameter: Leptin (ng) Produced over 96 h,isolated rat adipocytes [1]; [9],+14.2 ± 4.2 ng
same,Change in Parameter: [Leptin] (ng/ml) at 96 h,isolated rat adipocytes [1]; [9],+4.0 ± 1.0 ng/ml
same,Leptin (ng) Produced over 96 h,isolated rat adipocytes [1]; NEM 0.1 μM + insulin 0.48 nM,63.4 ± 8.2 ng
same,[Leptin] (ng/ml) at 96 h,isolated rat adipocytes [1]; NEM 0.1 μM + insulin 0.48 nM,18.4 ± 2.4 ng/mL
same,effect on leptin production/secretion (in words),"isolated rat adipocytes [1]; PDH kinase inhibitors DTNB, NEM, DCA, cultured adipocytes",increase
same,increase of leptin production/secretion,isolated rat adipocytes [1]; cultured adipocytes,25%
"CCCCCCCC/C=C\CCCCCCCC(=O)O [oleate, oleic acid]",inhibition at 2000 µM,"isolated rat adipocytes [6]; Rattus norvegicus, Adipocyte, oleate 2 mM, n=7",30%
same,effect on glucose oxidation (in words),"isolated rat adipocytes [6]; oleic acid 2 mM, low glucose",inhibits
same,effect on leptin secretion (in words),isolated rat adipocytes [1],increased
same,effect on leptin secretion (in words),isolated rat adipocytes [1]; listed as oleic acid,increases
[F-].[Na+] [sodium fluoride],effect on leptin expression and secretion (in words),isolated rat adipocytes [2]; glycolysis suppressed with sodium fluoride,reduced
